These results are taken from article PMC8221158, “Novel pyrrolizines bearing 3,4,5-trimethoxyphenyl moiety: design, synthesis, molecular docking, and biological evaluation as potential multi-target cytotoxic agents” (Journal of Enzyme Inhibition and Medicinal Chemistry, 2021).

Each structure is given as a SMILES string. Like-named read-outs stand apart in the source and are kept apart here.

One data set has as its system MCF-7. Briefly: MTT cell proliferation assay. The class given is cell-based, human. The settings on record: for IC50: Homo sapiens, MCF7, MTT, 72 h treatment, n = 3, read-out: IC50 (µM ± SD) MCF-7; for Selectivity index MCF-7: IC50 MRC-5 / IC50 MCF-7. How it is done: (§1) MCF-7 (human breast adenocarcinoma), A2780 (human ovarian cancer) and HCT116 (human colorectal carcinoma), and MRC-5 (normal foetal lung fibroblast) cell lines were bought from the ATCC and were cultured in flasks which were incubated at 37 °C in an atmosphere of 5% CO2, 95% air, and 100% relative humidity, to maintain continuous logarithmic growth. MCF-7, A2780, and HCT116 were maintained in RPMI-1640 media (100 U/mL penicillin, 100 µg/mL streptomycin, and 10% foetal bovine serum, Gibco, Carlsbad, CA). MRC-5 cells were maintained in EMEM (100 U/mL penicillin, 100 µg/mL streptomycin, and 10% foetal bovine serum, Gibco, Carlsbad, CA). Doxorubicin (5 μg/mL, for three months) added for RPMI-1640 media containing MCF7 cells was used to develop doxorubicin-resistant MCF7/ADR cells. All cancer and normal cell lines were cultured according to our previous report. Cells were used within 10–20 passages and were checked for mycoplasma every 6 months, by measuring the bioluminescence (Myco Alert sample detection kit; Lonza, Basel, Switzerland) using the multiplate reader (Synergy HT, BioTek, Winooski, VT).
(§2) The MTT assay was used to measure the cytotoxicity and growth inhibitory activities and cytotoxicity of the new compounds according to our previous report[13]^,[17]. Cells from flasks of 70–80% confluency were separately seeded in 96-well flat-bottom microculture plates (Nalgene-Nunc, Thermo Fisher Scientific, Roskilde, Denmark) at a density of 3 × 10^3 cells (MCF-7, A2780, and MRC-5), 1 × 10^4 cells (HCT116), to a volume of 180 μL/well of culture medium. A Neubauer haemocytometer was used for cell counting. Cells were incubated at 37 °C overnight to allow attachment to the wells. The final concentrations of each compound in wells were: 0–50 μM in 200 μL of media (DMSO 0.1%). Lapatinib (Cayman, Ann Arbor, MI) was used as a positive control at the same final concentrations. Medium only (20 μL) was added to each control well, and each concentration was tested in triplicates (n = 3). Following incubation for 72 h, 50 μL MTT was added into each well. Plates were incubated for 3 h, the supernatant was aspirated, and 100 μL of DMSO was added to each well. The optical density (OD) of the purple formazan is proportional to the number of viable cells. […] GraphPad Prism version 5.00 for Windows was used for analysis (La Jolla, CA). Cytotoxicity of the new compounds was calculated after treatment of cancer/normal cell lines for 72 h. The absorbance of the reduced MTT was determined using a microplate reader A570 nm.
(§3) The cytotoxic activity of the new compounds (15a–e, 16a–e, 20, and 21) was evaluated in vitro using MTT assay. The MTT assay depends on the reduction of the yellow tetrazole dye (MTT) to the purple formazan by the active mitochondrial dehydrogenase enzymes indicating the viability of the cells which can be measured as OD. The new compounds were evaluated against three non-resistant cancer cell lines: MCF-7, and A2780 cell lines were selected to compare cytotoxicity of the new compounds with the previously reported results of compounds 9a,b[13]. Cytotoxicity of the new compounds was also evaluated also against HCT116 cells which lacks COX-2 protein[33]^,[34].
Background: Formazan colour is commonly taken as a measure of viable cells.

Another data set has as its system HCT116. Briefly: MTT cell proliferation assay. The class given is cell-based, human. The note with it: for IC50: Homo sapiens, HCT-116, MTT, 72 h treatment, n = 3, read-out: IC50 (µM ± SD) HCT116; for Selectivity index HCT116: IC50 MRC-5 / IC50 HCT116. The method, then:
as §1, §2, §3

The test system of the next data set is A2780. Briefly: MTT cell proliferation assay. Format: cell-based, human. The note with it: for IC50: Homo sapiens, A2780, MTT, 72 h treatment, n = 3, read-out: IC50 (µM ± SD) A2780; for Selectivity index A2780: IC50 MRC-5 / IC50 A2780. The method, then: as §1, §2, §3
The test system of a further data set is normal MRC-5 cells. In words: MTT assay, normal cells (cytotoxic selectivity). Format: cell-based. The settings on record: Homo sapiens, MRC5, 72 h treatment, n = 3, read-out: IC50 (µM ± SD) MRC-5. The method, then:
as §1, §2
Selectivity towards cancerous cells is one of the important issues which must be considered during the discovery and development of new anticancer agents. To assess the toxicity and selectivity of the new compounds (15a–e, 16a–e, 20, and 21), their growth inhibitory activities against normal human foetal lung fibroblast MRC-5 cells were evaluated using the MTT assay. […] The selectivity of the new compounds towards each of the three cancer cell lines was calculated by dividing their IC50 values against normal MRC-5 cells by their IC50 values against the corresponding cancer cell line (Table 3).

The test system of data set [1] is MCF-7, HCT116, and A2780 cancer cell lines. Briefly: MTT assay, three cancer cell lines taken together (average, overall range). The note with it: Homo sapiens. The class given is cell-based, human.
Where [2] appears, read: MCF-7, HCT116, A2780, read-out: Average of the three IC50 values against the three cancer cell lines.

Consider `COc1cc(C=Nc2c(C#N)c3n(c2C(=O)Nc2ccc(C)cc2)CCC3)cc(OC)c1OC` [15b, 7-Cyano-N-(p-tolyl)-6-((3,4,5-trimethoxybenzylidene)amino) -2,3-dihydro-1H-pyrrolizine-5-carboxamide], for which the melting point fell in the range of 251 to 253 °C. Further, in the data set with MCF-7, the IC50 came to 35.9 ± 4.44 µM and the “Selectivity index MCF-7” value came to 0.09. Moreover, in the data set on HCT116, the IC50 came out at 19.8 ± 7.76 µM and the “Selectivity index HCT116” value was 0.17. In the data set with A2780, the IC50 worked out at 33.4 ± 3.73 µM and the “Selectivity index A2780” value was 0.10. The IC50 in the data set with normal MRC-5 cells amounted to 3.33 ± 1 µM. For the same compound, the half-maximal inhibitory concentration (IC50) in data set [1] (setting [2]) was determined as 29.7 µM.
On to `COc1ccc(NC(=O)c2c(N=Cc3cc(OC)c(OC)c(OC)c3)c(C#N)c3n2CCC3)cc1` [15c, 7-Cyano-N-(4-methoxyphenyl)-6-((3,4,5-trimethoxybenzylidene)amino)-2,3-dihydro-1H-pyrrolizine-5-carboxamide], for which the melting point lay within 263 to 265 °C. In the data set with MCF-7, the IC50 is 0.616 ± 0.01 µM and the “Selectivity index MCF-7” value is reported as 3.21. For the same compound, in the data set on HCT116, the IC50 stood at 0.096 ± 0.015 µM and the “Selectivity index HCT116” value was found to be 20.47. For the same compound, in the data set with A2780, the IC50 came out at 0.041 ± 0.008 µM and the “Selectivity index A2780” value is on record as 48.27. Besides, the IC50 in the data set with normal MRC-5 cells worked out at 1.98 ± 0.561 µM. Further, the IC50 in data set [1] (setting [2]) was determined as 0.251 µM.
Turning to `CS(=O)(=O)CCNCc1ccc(-c2ccc3ncnc(Nc4ccc(OCc5cccc(F)c5)c(Cl)c4)c3c2)o1` [Lapatinib, reference compound], the IC50 in the data set with MCF-7 is 6.69 ± 1.09 µM; with HCT116, 10 ± 1.13 µM; in the data set with A2780, 9.72 ± 0.845 µM; with normal MRC-5 cells, 13.7 ± 2.9 µM; in data set [1] (setting [2]), 8.83 µM; in data set [1] (MTT, 72 h, range over MCF-7, HCT116, A2780, read-out: IC50 against the three cancer cell lines), 6.69 to 10 µM. The “Selectivity index MCF-7” value with MCF-7 was determined as 2.04. Besides, in the data set with HCT116, the “Selectivity index HCT116” value is recorded as 1.36. Moreover, the “Selectivity index A2780” value with A2780 came out at 1.40.
As for `COc1cc(C=Nc2c(C#N)c3n(c2C(=O)Nc2ccccc2)CCC3)cc(OC)c1OC` [15a, 7-Cyano-N-phenyl-6-((3,4,5-trimethoxybenzylidene)amino)-2,3-dihydro-1H-pyrrolizine-5-carboxamide], the melting point was 242 to 244 °C. In the data set on MCF-7, the half-maximal inhibitory concentration (IC50) came to 36.9 ± 4.4 µM and the “Selectivity index MCF-7” value is 0.05. In addition, in the data set on HCT116, the IC50 was 0.353 ± 0.088 µM and the “Selectivity index HCT116” value came to 4.92. In the data set on A2780, the IC50 came to 25.8 ± 4.99 µM and the “Selectivity index A2780” value is 0.07. Moreover, the IC50 in the data set on normal MRC-5 cells was 1.74 ± 0.149 µM. The IC50 in data set [1] (setting [2]) stood at 21 µM.
On to `COc1ccc(NC(=O)c2c(NC(=O)c3cc(OC)c(OC)c(OC)c3)c(C#N)c3n2CCC3)cc1` [16c, 7-Cyano-N-(4-methoxyphenyl)-6-(3,4,5-trimethoxybenzamido)-2,3-dihydro-1H-pyrrolizine-5-carboxamide], for which the melting point lay within 259 to 261 °C. Also, in the data set with MCF-7, the IC50 stood at 1.47 ± 0.452 µM and the “Selectivity index MCF-7” value was 0.45. In the data set with HCT116, the IC50 amounted to 0.032 ± 0.014 µM and the “Selectivity index HCT116” value came to 20.78. Also, in the data set with A2780, the IC50 was 0.144 ± 0.012 µM and the “Selectivity index A2780” value was found to be 4.62. In addition, the IC50 in the data set on normal MRC-5 cells amounted to 0.665 ± 0.191 µM. For the same compound, the IC50 in data set [1] (setting [2]) was 0.549 µM.
In the case of `COc1cc(C(=O)Nc2c(C#N)c3n(c2C(=O)Nc2ccccc2)CCCC3)cc(OC)c1OC` [compound 21, 1-Cyano-N-phenyl-2-(3,4,5-trimethoxybenzamido)-5,6,7,8-tetrahydroindolizine-3-carboxamide], the IC50 in the data set on MCF-7 was found to be 0.6 ± 0.054 µM; in the data set with HCT116, 0.176 ± 0.017 µM; in the data set on A2780, 0.598 ± 0.039 µM; in the data set with normal MRC-5 cells, 0.584 ± 0.094 µM; in data set [1] (setting [2]), 0.458 µM.

One may read the IC50 as the concentration that gives 50% inhibition. By melting point is commonly meant the temperature of the solid-liquid transition.
